From patent US20050209157A1, “Short bioactive peptides and methods for their use” (priority 2001, published 2005)
“Also recorded” adds a separate entry of the source. Where two headings read alike, the source gives them in different places. No end group written: not given here.

Tests used:
fungal = experiment: Presently preferred antifungal peptides, selected from the MIC/MBC data; assay type: cell-based; conditions: X = preferred
Source text: The peptide's “length” is the number of amino acid residues in the sequence.

in vitro [1] = conditions: human, WI38 normal lung fibroblast cells
[2] = test system: Stapholococcus aureus ATCC 25923; experiment: Antimicrobial assay I, modified protocol (tryptic soy broth), MBC; conditions: minimum bactericidal concentration, Table 4
[3] = test system: Escherichia coli ATCC 25922; experiment: as above; conditions: minimum bactericidal concentration, Table 4
[4] = test system: Pseudomonas aeruginosa ATCC 27853; experiment: as above; conditions: minimum bactericidal concentration, Table 4
[5] = test system: Candida albicans ATCC 10231; experiment: Antimicrobial assay I, modified protocol (tryptic soy broth), MFC; conditions: minimum fungicidal concentration, Table 4
in vitro [6] = assay type: cell-based, human; conditions: human, human red blood cells
cancer cell lines = experiment: Anti-cancer assays, MTT, summary over the cancer cell lines; assay type: cell-based; conditions: X = preferred
[7] = test system: yeast (Saccharomyces cerevisiae); experiment: Antimicrobial assay I, yeast assay in RPMI 1640; assay type: cell-based; conditions: RPMI 1640 media
[8] = test system: Staphylococcus aureus ATCC 6538; experiment: Antimicrobial assay I, MIC by OD measurement; assay type: cell-based; conditions: 37° C. for 24 hours, absorbance 620 nm
[9] = test system: Pseudomonas aeruginosa ATCC 9027; experiment: Antimicrobial assay I, MIC by OD measurement; assay type: cell-based; conditions: for paerug9027 (MIC): 37° C. for 24 hours, absorbance 620 nm
BMKC = experiment: Anti-cancer assay, MTT, LD50; assay type: cell-based; conditions: BMKC cloned melanoma line, 24 hours with peptide
Source text: (§1) Numbers are LD50 values (μg/mL).

PC3 = experiment: Anti-cancer assay, MTT, LD50; assay type: cell-based; conditions: 24 hours with peptide, prostate adenocarcinoma
Source text: as §1

HeLaS3 = experiment: Anti-cancer assay, MTT, LD50; assay type: cell-based; conditions: 24 hours with peptide, cervical carcinoma
Source text: as §1

MCF7 = experiment: Anti-cancer assay, MTT, LD50; assay type: cell-based; conditions: MCF7 breast adenocarcinoma line, MTT, 24 hours with peptide
Source text: as §1

SW480 = experiment: Anti-cancer assay, MTT, LD50; assay type: cell-based; conditions: SW480 colon adenocarcinoma line, 24 hours with peptide
Source text: as §1

H1299 = experiment: Anti-cancer assay, MTT, LD50; assay type: cell-based; conditions: 24 hours with peptide, lung large cell carcinoma
Source text: as §1

[10] = test system: hairless rat skin burn wound; experiment: In vivo wound healing, TCA chemically induced skin burn wound; conditions: for Epidermal thickening / Fibroblast cells in test area / Inflammatory response area / Leukocyte cells in test area / Wound closure: rat model, TCA burn treated by peptide; for Wound closure: 26 days
Source text: The hairless rat was chosen as a suitable test model. Female hairless rats of 100 to 150 grams weight and 8 to 12 weeks age were used in the study.
As an alternative, 70% trichloroacetic (TCA) dissolved in 70% ethanol was employed to induce the dermal erosion patches. […] As the chemical burn agent, the TCA treatment inflicted on the rats far less trauma and mortality than occurred with the Phenol model.
The experimental Protocol procedure steps were as follows: • 1. The animal was anesthetized (40 mg/kg Phenobarbital). • 2. Color photographs of the animal's back (with six separate peels) were taken before each treatment and daily thereafter. • 3. Rat skin surface was prepared by wiping with 70% ethanol. Filter paper discs (1.1 cm diameter) were soaked in 70% TCA/ethanol. • 4. The discs were placed on the back of the hairless rat for 30 minutes [6 disks providing for 2 control (no peptide treatment) disks and 4 disks for peels to receive peptide treatment.] • 5. After a 30 minute burn the discs were removed. Twenty four hours later, different peptide solutions (1500 ppm in saline) were applied to four peels, and saline was applied to the two control peels. • 6. Peptide solutions (and saline for the controls) were applied to the six wounds with a soft brush each day thereafter. • 7. It took approximately one month for the wounds to heal (complete skin closure with stabilized epidermis), after which the animal was sacrificed. • 8. The treated skin was harvested, section stained with trichrome, and mounted on slides.
The percentage of wound closure for each peel (six sites) was measured each day until the animal was sacrificed. The percentage closure was determined by measuring on the animal photographs the area of the remaining scab relative to the area of the initial scar after the burn. These measurements were made by digitizing and analyzing the peels using the Sigma Plot ProScan 4 program.
This provided a measure of the post-TCA burn treatment of the inflammatory response in each peel site.
The extent of epidermal thickening (hyperkeratosis) at each site was also determined by measurement with the Sigma Plot program applied to the stained section slides of the various wound areas and the normal untreated skin (control) surrounding the peels. At magnifications of 100× to 320×, the microphotographs of the color slides provided a powerful tool for such quantification of the extent of hyperkeratosis evident in each peel.
Treatment of the section slides with selective stains produced identifiable evidence of the presence of both leukocyte and fibroblast cells in the wound areas. This was also quantified by the Sigma Plot program.
The above described animal model and protocols were employed in the testing of approximately 20 of the peptides listed in Table 48 (and other peptides for comparison) as preferred FLAK peptides for wound healing.

[11] = test system: human red blood cells (RBC); experiment: in vitro; assay type: cell-based; conditions: hemolytic assay, concentration at 50% hemolysis, 1 hour at 37° C.
P. aeruginosa H774 = assay type: cell-based, Pseudomonas aeruginosa; conditions: P. aeruginosa H744; nalidixic acid + peptide at ¼ MIC; 0.5 or less = synergy
In short: (§2)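 Efflux-mutant strains were tested with two-fold serial dilutions of chloramphenicol or nalidixic acid, alone and with peptide held at ¼ of its own MIC.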

P. aeruginosa H374 = assay type: cell-based, Pseudomonas aeruginosa; conditions: for FIC Index: 0.5 or less = synergy
In short: as §2

P. aeruginosa = assay type: cell-based, Pseudomonas aeruginosa; conditions: P. aeruginosa H744; MIC of nalidixic acid with peptide at ¼ MIC
In short: as §2

[12] = WI-38 LD50, Table 26, valine substitution
[13] = pH 7, Table 26, valine substitution, read-out: Hemolysis RBC LD50
[14] = MTT, 24 hours with peptide, normal fibroblast line

FALALKALKKL-NH2 [compound 165]
Anti-fungal (preferred peptide) (fungal): X (Preferred antifungal peptides can be selected as having MIC or MBC values of less than or equal to about 25 μg/ml)
CC50 at 24 h (in vitro [1]; [12]): 850 mg/L
MBC S. aur A.25923 [2]: 25 mg/L
MBC E. coli A.25922 [3]: 10 mg/L
MBC P. aerug A.27853 [4]: 25 mg/L
MFC Candida A.10231 [5]: 10 mg/L
HC50 at 1 h (in vitro [6]; [13]): 350 µg/mL

KWKLFKKALKKLKKALKKAL-NH2 [compound 104]
Anti-cancer (preferred peptide) (cancer cell lines): X (Preferred anticancer peptides can be selected as having LD50 values of less than or equal to about 25 μg/ml)

KWKLFKKKTKLFKKFAKKLAKKL-OH [compound 81]
Anti-cancer (preferred peptide) (cancer cell lines): X (Preferred anticancer peptides can be selected as having LD50 values of less than or equal to about 25 μg/ml)

MPKEKVFLKIEKMGRNIRN-NH2 [P107, reference compound]
yeast (MIC or MFC) [7]: > (> indicates greater than 200 μg/mL)
staph6538 (MIC) [8]: > (> indicates greater than 200 μg/mL)
paerug9027 (MIC) [9]: > (> indicates greater than 200 μg/mL)
WI38 LD50 (WI38; [14]): > (> indicates greater than 1000)
LD50 WI38 (WI38; WI38 normal lung fibroblast line, MTT, 24 hours with peptide): > (> indicates greater than 1000)
LD50 BMKC (BMKC): > (> indicates greater than 1000)
PC3 LD50 (PC3): > (> indicates greater than 1000)
HeLaS3 LD50 (HeLaS3): > (> indicates greater than 1000)
LD50 MCF7 (MCF7): > (> indicates greater than 1000)
LD50 SW480 (SW480): > (> indicates greater than 1000)
H1299 LD50 (H1299): > (> indicates greater than 1000)
rate of wound closure ([10]; hairless rat, full wound closure at 26 days): small advantage in rate of wound closure over the other peptides and no peptide
ability to limit post-TCA burn inflammatory responses ([10]; hairless rat, peptide solutions 1500 ppm in saline, topical daily): superior in this respect
hyperkeratosis (epidermal thickening) ([10]; hairless rat, peptide solutions 1500 ppm in saline, topical daily, listed as SEQ ID NO:71): lowest evidence of hyperkeratosis (epidermal thickening); also recorded: substantially no hyperkeratosis as compared to the TCA burn untreated control
Epidermal thickening [10]: 33 % of control (TCA only)
Fibroblast cells in test area [10]: 420 % of normal skin
Inflammatory response area [10]: 0 % of healed scar
Leukocyte cells in test area [10]: 400 % of normal skin
Wound closure [10]: 100 % of initial wound
LD50 [11]: > (> indicates greater than 1000)

CC[C@H](C)[C@H](N)C(=O)N[C@@H](CC(C)C)C(=O)N1CCC[C@H]1C(=O)N[C@@H](Cc1c[nH]c2ccccc12)C(=O)N[C@@H](CCCCN)C(=O)N[C@@H](Cc1c[nH]c2ccccc12)C(=O)N1CCC[C@H]1C(=O)N[C@@H](Cc1c[nH]c2ccccc12)C(=O)N[C@@H](Cc1c[nH]c2ccccc12)C(=O)N1CCC[C@H]1C(=O)N[C@@H](Cc1c[nH]c2ccccc12)C(=O)N[C@@H](CCCNC(=N)N)C(=O)N[C@@H](CCCNC(=N)N)C(=O)O [compound 91]
Anti-cancer (preferred peptide) (cancer cell lines): X (Preferred anticancer peptides can be selected as having LD50 values of less than or equal to about 25 μg/ml)

FAKLLAKALKKAL-NH2 [P102, FAKLLAKALKKAL-NH2]
CC50 at 24 h (in vitro [1]; LD50 WI38, WI38 normal lung fibroblast line, MTT, 24 hours with peptide): 73 mg/L
yeast (MIC or MFC) [7]: 50 mg/L
staph6538 (MIC) [8]: 5 mg/L
paerug9027 (MIC) [9]: 10 mg/L
WI38 LD50 (WI38; [14]): 73 µg/mL
FIC Index (P. aeruginosa H774): 1.25
MIC Cm-comb. (P. aeruginosa H374; MIC of chloramphenicol with peptide at ¼ MIC): 16 mg/L
MIC Nal-comb. (P. aeruginosa H374; MIC of nalidixic acid with peptide at ¼ MIC): 5000 mg/L
FIC Index (P. aeruginosa H374; chloramphenicol + peptide at ¼ MIC): 1.25
FIC Index (P. aeruginosa H374; nalidixic acid + peptide at ¼ MIC, FIC=0.25+MIC comb/MIC alone): 1.25
MIC Nal-comb. (P. aeruginosa): 624 mg/L
LD50 BMKC (BMKC): 60 µg/mL
PC3 LD50 (PC3): 66 µg/mL
HeLaS3 LD50 (HeLaS3): 43 µg/mL
LD50 MCF7 (MCF7): 60 µg/mL
LD50 SW480 (SW480): 57 µg/mL
H1299 LD50 (H1299): 27 µg/mL
Epidermal thickening [10]: 50 % of control (TCA only)
Fibroblast cells in test area [10]: 220 % of normal skin
Inflammatory response area [10]: 27 % of healed scar
Leukocyte cells in test area [10]: 370 % of normal skin
Wound closure [10]: 96.7 % of initial wound
HC50 at 1 h (in vitro [6]; pH 7, hemolytic assay, concentration at 50% hemolysis, 1 hour at 37° C., read-out: LD50): 500 µg/mL

VAKLLAKLAKKVL-NH2 [compound 154]
Anti-fungal (preferred peptide) (fungal): X (Preferred antifungal peptides can be selected as having MIC or MBC values of less than or equal to about 25 μg/ml)
CC50 at 24 h (in vitro [1]; [12]): 110 mg/L
MBC S. aur A.25923 [2]: >250 mg/L
P. aerug (MIC) [9]: 100 mg/L
MBC E. coli A.25922 [3]: 50 mg/L
MBC P. aerug A.27853 [4]: 100 mg/L
WI38 LD50 (WI38; Table 27): 110 µg/mL
MFC Candida A.10231 [5]: 25 mg/L
HC50 at 1 h (in vitro [6]; [13]): 870 µg/mL
HC50 at 1 h (in vitro [6]; pH 7, Table 27, read-out: Hemolysis (LD50)): 450 µg/mL

FALALKLAKKAL-NH2 [compound 167]
Anti-fungal (preferred peptide) (fungal): X (Preferred antifungal peptides can be selected as having MIC or MBC values of less than or equal to about 25 μg/ml)
MBC S. aur A.25923 [2]: 10 mg/L
MBC E. coli A.25922 [3]: 25 mg/L
MBC P. aerug A.27853 [4]: >250 mg/L
MFC Candida A.10231 [5]: 25 mg/L
